Test results as given in patent US20100317671A1, “XANTHINE-BASED CYCLIC GMP-ENHANCING RHO-KINASE INHIBITOR INHIBITS PHYSIOLOGICAL ACTIVITIES OF LUNG EPITHELIAL CELL LINE” (KAOHSIUNG MEDICAL UNIVERSITY, priority 2008, published 2010).

Legend:
Assay type in all cases: in vivo
collagen = test: Collagen amount, bleomycin-induced IPF mice; conditions: for Fibrosis formation in lung tissue (collagen): day 28, p<0.01; for The amount of collagen: day 28 after BLM
Procedure: The amount of the collagen in the lung lavage is measured to reflect the fibrosis formation. […] (2) After the lung lavage is obtained, the chest of mice is opened and the lung lobes are cut one by one. […] The 1.5 ml eppendorffs are taken to arrange the calibration curve as follows. […] The eppendorff is then centrifuged at 12,000 rpm for 10 mins. The supernatant in the eppendorff is poured out slowly, 1 ml basic compound is added for dissolving the precipitation. After being violently shaken for 5 mins, the reaction is incubated for 3 hrs to stabilize the color. […] The amount of collagen is estimated through the 540 nm absorption measured by the ELISA reader.

MMP-2 = test: Gelatin zymography of lung lavage, bleomycin mice; conditions: for MMP-2 expression in lung lavage (zymography): day 7 or day 28, p<0.05; for Expression of MMP2 in lung lavage: lung inflammatory stage
Procedure: (§1) The activities of MMP-2 (FIGS. 7A and 8A) and MMP-9 (FIGS. 7B and 8B) in the lung lavage of mice on day 7 (FIG. 7) and day 28 (FIG. 8) are analyzed by zymography. The expression levels are minor in the normal control group. […] The expressions of MMP-2 and MMP-9 on day 7 are higher than that on day 28. […] It is seen that KMUPs have the effect of mitigating the inflammation.
(§2) The MMPs in the lung lavaga are measured by zymography. It is known that all of the MMP-1, MMP-2, MMP-3, MMP-7 and MMP-9 can degrade the gelatin, especially the MMP-2 and MMP-9. The activity of collagenase can be analyzed by SDS-PAGE gel adding by gelatin. After the collected bronchoalveolar lavage fluid (BALF) is electrophoreted, the SDS is removed with 2.5% (v/v) Triton X-100 and the activity of collagenase is recovered to degrade the gelatin. After reacting for a period of time, the commassie blue is utilized for staining and destaining so that a transparent band in the area having the collagenase activity can be seen owing to the gelatin is degraded.
(§3) The BALF is collected and the concentration thereof is measured by Bio-Rad DC protein assay. The absorption of BALF at 595 nm wavelength is measured by an ELISA reader with a BSA standard, and the concentration of the sample is measured according to the standard curve of this absorption value.
(§4) The sample is mixed with non sample buffer. After reacting under temperature for 10 mins, the separating gel containing 0.1% gelatin is utilized for electrophoresis analysis under low temperature. While the electrophoresis is finished, the gel is immersed in 2.5% Triton X-100 buffer to react under temperature for half hour. The 2.5% Triton X-100 buffer is exchanged to react under temperature for additional half hour. The gel is immersed in the developing buffer at 37° C. for 24 hrs, stained with staining buffer for 1 hr and destained with the destaining buffer, and the transparent band can be seen.

MMP-9 = test: Gelatin zymography of lung lavage, bleomycin mice; conditions: for MMP-9 expression in lung lavage (zymography): day 7 or day 28, p<0.05; for Expression of MMP-9 in lung lavage: lung inflammatory stage
Procedure: as §1, §2, §3, §4

eNOS = eNOS expression by western blotting, bleomycin mice; conditions: lung fibrotic stage
Procedure: At day 28, it is observed that expression of eNOS is decreased, the expressions of TGF-β, Smad 3 and HMGB1 are increased and there is significant collagen accumulation in the tissue sections.
The eNOS (FIG. 15), p-eNOS (FIG. 16) and iNOS (FIG. 17) protein expressions in the lung tissue are analyzed by western blotting. […] The KMUPs administration effectively increases the eNOS expression.
(1) The mice lung is immersed in the tissue lysis buffer and homogenized by an ultrasound sonicator on ice.
(2) The lysate is centrifuged at 13,000 g under 4° C. for 30 mins. The supernatant is collected and the protein concentration measurement adopts the“Bio-Rad DC protein assay”. After diluting the protein as specific concentrations, the sample buffer being one fourth of the sample volume is added thereinto for heating at 100° C. for 5 mins, and the sample is loaded into each wells of SDS-PAGE gel in turn. The running buffer is added into the electrophoresis tank for electrophoresis at 100 V, the voltage is adjusted as 200 V when the protein runs to the lower gel, and the electrophoresis is stopped when the SDS-PAGE dye enters the SDS-PAGE.
(3) The PVDF membrane is rinsed ith transfer buffer for use, and the protein on the SDS-PAGE is transferred to the PVDF membrane. […]

[1] = dose 2.5 mg/kg (Combination: 2.5 mg/kg each drug)

SMILES: Cn1c(=O)c2c(ncn2CCN2CCN(c3ccccc3Cl)CC2)n(C)c1=O [KMUP-1, 7-[2-[4-(2-chlorobenzene)piperazinyl]ethyl]-1,3-dimethylxanthine]
- Fibrosis formation in lung tissue (collagen) (collagen): reduce
- The amount of collagen (collagen; dose 1 mg/kg): 165.16 ± 0.11 μg/lung
- The amount of collagen (collagen; [1]): 132.25 ± 5.95 μg/lung
- The amount of collagen (collagen; dose 5 mg/kg): 108.32 ± 6.05 μg/lung
- MMP-2 expression in lung lavage (zymography) (MMP-2): significantly decrease
- Expression of MMP2 in lung lavage (MMP-2): efficiently decrease
- MMP-9 expression in lung lavage (zymography) (MMP-9): significantly decrease
- Expression of MMP-9 in lung lavage (MMP-9): efficiently decrease
- Expression of eNOS (eNOS): increase

SMILES: CCC(C)(C)C(=O)O[C@H]1C[C@@H](C)C=C2C=C[C@H](C)[C@H](CC[C@@H](O)C[C@@H](O)CC(=O)O)[C@H]21.Cn1c(=O)c2c(ncn2CCN2CCN(c3ccccc3Cl)CC2)n(C)c1=O [KMUP-5]
- Fibrosis formation in lung tissue (collagen) (collagen): reduce
- The amount of collagen (collagen; [1]): 79.40 ± 0.02 μg/lung
- MMP-2 expression in lung lavage (zymography) (MMP-2): significantly decrease
- Expression of MMP2 in lung lavage (MMP-2): efficiently decrease
- MMP-9 expression in lung lavage (zymography) (MMP-9): significantly decrease
- Expression of MMP-9 in lung lavage (MMP-9): efficiently decrease
- Expression of eNOS (eNOS): increase
